Experiment [1] in a line: Cytotoxicity against human KATO III cells at 10 uM after 72 hrs by MTT assay. Type of experiment: functional, KATO III cell. (Tetrazolium assays rely on reduction of a dye to a coloured formazan, in cell work by metabolically active cells.)
For experiment [2], the system named is HepG2. Briefly: Cytotoxicity against human HepG2 cells at 10 uM after 72 hrs by MTT assay. Format: functional.
The nature of experiment [3]: Cytotoxicity against human ChaGo cells at 10 uM after 72 hrs by MTT assay. Type of experiment: functional.
Experiment [4] in a line: Cytotoxicity against human CaSki cells at 10 uM after 72 hrs by MTT assay. Type of experiment: functional, Ca-Ski.
Experiment [5] concerns SW-620. Briefly: Cytotoxicity against human SW620 cells at 10 uM after 72 hrs by MTT assay. Format: functional.
The nature of experiment [6]: Cytotoxicity against human CaSki cells after 72 hrs by MTT assay. Type of experiment: functional, cell-based. Particulars: Ca-Ski.
In experiment [7] the test system is Ca-Ski. Kind of experiment: Induction of apoptosis in human CaSki cells carrying HPV assessed as reduction of E6 mRNA expression at 0.3 uM after 24 hrs by RT-PCR analysis. Type of experiment: functional, cell-based.
Experiment [8] relates to Ca-Ski. Briefly: Induction of apoptosis in human CaSki cells carrying HPV assessed as inhibition of Bcl-2 protein expression at 0.3 uM after 24 hrs by Western blotting analysis. Format: functional, cell-based.
The test system of experiment [9] is Ca-Ski. Kind of experiment: Induction of apoptosis in human CaSki cells carrying HPV assessed as increase in procaspase-3 protein expression after 24 hrs by Western blotting analysis. Format: functional, cell-based. A general note: Immunoblotting shows a protein as a band on a membrane.
Experiment [10] in a line: Cell cycle arrest in human CaSki cells assessed as accumulation at G0 phase at 3 uM after 24 hrs by propidium iodide staining-based FACS analysis (reference value: 1.5%). Particulars: Ca-Ski. Type of experiment: functional.
For experiment [11], the system named is Ca-Ski. Kind of experiment: Induction of apoptosis in human CaSki cells carrying HPV assessed as downregulation of Akt phosphorylation after 24 hrs by Western blotting analysis. Format: functional, cell-based.
The nature of experiment [12]: Cell cycle arrest in human CaSki cells assessed as accumulation at G2/M phase at 3 uM after 24 hrs by propidium iodide staining-based FACS analysis (reference value: 18.0%). Format: functional. The note with it: Ca-Ski. For orientation: In flow cytometry, cells or beads pass a laser one at a time.
Experiment [13] deals with Ca-Ski. Kind of experiment: Inhibition of colony formation in human CaSki cells at 5 uM after 24 hrs by crystal violet staining-based fluorescence microscopy. Type of experiment: functional, cell-based.
Experiment [14] is described as follows: Cell cycle arrest in human CaSki cells assessed as accumulation at G0 phase at 0.3 uM after 24 hrs by propidium iodide staining-based FACS analysis (reference value: 1.5%). Format: functional. The note with it: Ca-Ski.
Experiment [15] in a line: Cell cycle arrest in human CaSki cells assessed as accumulation at G1 phase at 3 uM after 24 hrs by propidium iodide staining-based FACS analysis (reference value: 61.3%). Type of experiment: functional. The note with it: Ca-Ski.
A short description of experiment [16]: Cytotoxicity against human KATO III cells after 72 hrs by MTT assay. Type of experiment: functional, cell-based, KATO III cell.
Experiment [17] in a line: Cell cycle arrest in human CaSki cells assessed as accumulation at S phase at 3 uM after 24 hrs by propidium iodide staining-based FACS analysis (reference value: 14.1%). The note with it: Ca-Ski. Type of experiment: functional.
A short description of experiment [18]: Cell cycle arrest in human CaSki cells assessed as accumulation at S phase at 1.5 uM after 24 hrs by propidium iodide staining-based FACS analysis (reference value: 14.1%). Format: functional. The note with it: Ca-Ski.
For experiment [19], the system named is HepG2. Briefly: Cytotoxicity against human HepG2 cells after 72 hrs by MTT assay. Type of experiment: functional, cell-based. Particulars: HepG2, 72 h.
The nature of experiment [20]: Cell cycle arrest in human CaSki cells assessed as accumulation at G1 phase at 1.5 uM after 24 hrs by propidium iodide staining-based FACS analysis (reference value: 61.3%). Format: functional. The note with it: Ca-Ski.
Experiment [21] can be described thus: Cell cycle arrest in human CaSki cells assessed as accumulation at G0 phase at 1.5 uM after 24 hrs by propidium iodide staining-based FACS analysis (reference value: 1.5%). Format: functional. The note with it: Ca-Ski.
The nature of experiment [22]: Cell cycle arrest in human CaSki cells assessed as accumulation at S phase at 0.3 uM after 24 hrs by propidium iodide staining-based FACS analysis (reference value: 14.1%). Type of experiment: functional. Particulars: Ca-Ski.
The nature of experiment [23]: Cell cycle arrest in human CaSki cells assessed as accumulation at G2/M phase at 1.5 uM after 24 hrs by propidium iodide staining-based FACS analysis (reference value: 18.0%). Format: functional. Particulars: Ca-Ski.
A short description of experiment [24]: Cytotoxicity against human ChaGo cells after 72 hrs by MTT assay. Format: functional, cell-based.
Experiment [25] is described as follows: Cell cycle arrest in human CaSki cells assessed as accumulation at G2/M phase at 0.3 uM after 24 hrs by propidium iodide staining-based FACS analysis (reference value: 18.0%). Format: functional. Particulars: Ca-Ski.
The test system of experiment [26] is Ca-Ski. Briefly: Cytotoxicity against human CaSki cells at 10 uM in presence of glutathione relative to control. Type of experiment: functional, cell-based.
A short description of experiment [27]: Cell cycle arrest in human CaSki cells assessed as accumulation at G1 phase at 0.3 uM after 24 hrs by propidium iodide staining-based FACS analysis (reference value: 61.3%). Particulars: Ca-Ski. Format: functional.
The test system of experiment [28] is Ca-Ski. Kind of experiment: Induction of apoptosis in human CaSki cells carrying HPV assessed as increase in p53 protein expression after 24 hrs by Western blotting analysis. Format: functional, cell-based.
Experiment [29] is described as follows: Cell cycle arrest in human CaSki cells assessed as accumulation at G2/M phase after 24 hrs by propidium iodide staining-based FACS analysis. Type of experiment: functional. The note with it: Ca-Ski.
Experiment [30] relates to Ca-Ski. Briefly: Induction of apoptosis in human CaSki cells by DAPI staining-based fluorescence microscopy. Format: functional, cell-based.
The nature of experiment [31]: Cytotoxicity against human WI38 cells after 72 hrs by MTT assay. Type of experiment: cell-based. The note with it: WI-38, 72 h.

Calls of active or inactive are those of the source. No cut-off for these calls is given here. Bounds are passed on as bounds.

In the case of `Cc1ccc(S(=O)(=O)Oc2ccc(N3CCOCC3)c3c2C(=O)c2ccccc2C3=O)cc1`, the Activity in [1] came out at 35.3%; in experiment [2] it was 6.1%; in experiment [3], 11.3%; in [4], 43.8%; in [5], 22.3%.
The matching figures for `Cc1ccc(S(=O)(=O)Oc2ccc(OS(=O)(=O)c3ccc(C)cc3)c3c2C(=O)c2ccccc2C3=O)cc1`: 31.1%, 11.9%, 5.8%, 36.4% and 22.2%.
Broadly, the IC50 is the concentration needed to halve the response being measured. A high value points to weaker potency in that assay. For `CCN(CC)c1ccc(OS(=O)(=O)c2ccc(C)cc2)c2c1C(=O)c1ccccc1C2=O`, the Activity in experiment [1] came to 39.9%; in [2] it was 35.6%; in experiment [3] it was 43.9%; in experiment [4], 50%; in experiment [5], 32.6%. Further, the midpoint of inhibition in [6], the IC50, lay at 0.3 µM.
On to `O=C1c2ccccc2C(=O)c2c(O)ccc(O)c21` [QUINIZARIN], for which the Activity in experiment [1] is 38.4%; in [2], 5.6%; in experiment [3], 12.3%; in experiment [4] it was 48.6%; in experiment [5], 21.1%. In addition, in [6], the IC50 is > 10 µM.
With `Cc1ccc(S(=O)(=O)Oc2ccc(NCc3ccccc3)c3c2C(=O)c2ccccc2C3=O)cc1`, the result in [7], in experiment [9], in experiment [26] and in [28] was Active. Besides, the inhibition result in [8] and in experiment [13] was “Active” in each case. Besides, the Activity in experiment [10] was 10.9%; in experiment [1], 41.5%; in [11] it was “Dose-dependent effect”; in experiment [12], 46.2%; in experiment [14], 1.9%; in experiment [15], 12.4%. The Activity in experiment [2] is 40.5%; in [3] it was 39.8%; in experiment [17] it was 14.2%; in experiment [18], 13.7%; in experiment [20] it was 31.7%; in experiment [21], 11%. For the same compound, the Activity amounted to 12.6% in [22]; 33.8% in experiment [23]; 19.5% in [25]; 62% in experiment [27]; 84.5% in [4]; 49.1% in experiment [5]. For the same compound, the Activity result in [29] and in experiment [30] was “Dose-dependent effect” in each case. For the same compound, the IC50 was > 5.7 µM in [16], > 5.7 µM in experiment [19], > 5.7 µM in experiment [24] and > 10 µM in [31].
For the compound `Cc1ccc(S(=O)(=O)Oc2ccc(NCCc3ccccc3)c3c2C(=O)c2ccccc2C3=O)cc1`, the Activity in experiment [1] is on record as 42.5%; in experiment [2], 8.3%; in experiment [3], 13.3%; in experiment [4], 27.4%; in experiment [5] it was 49.5%.
As for `Cc1ccc(S(=O)(=O)Oc2ccc(NCCN3CCOCC3)c3c2C(=O)c2ccccc2C3=O)cc1`, the Activity was found to be 29.3% in experiment [1]; 11.1% in [2]; 4.9% in experiment [3]; 42.8% in experiment [4]; 19.4% in experiment [5].
